According to patent US11679082B2, “Therapeutic constructs for co-delivery of mitotic kinase inhibitor and immune checkpoint inhibitor” (Oregon Health & Science University, priority 2019, dated 2023):

Columns and labels:
PD-L1 = PD-L1 surface expression of LLC-JSP cells by flow cytometry; type: cell-based, mouse; settings: 500 ng/ml inhibitor
From the text: FIGS. 3A-3C. […] (FIG. 3A) PLK1 and PD-L1 mRNA expression in A549 (human NSCLC) at 48 hr post treatment with PLK1 siRNA (siPLK1) or scrambled siRNA (siSCR) normalized to HPRT housekeeping gene. Data presented as mean±SD from triplicates; ****P<0.0001. (FIG. 3B) PD-L1 surface expression of A549 ([…]) and LLC-JSP (a mouse NSCLC, FIG. 3C) at 72 hr post treatments assessed by flow cytometry (10,000 events per sample). Mouse siPLK1 seq. […] (SEQ ID NO: 1); Human siPLK1 seq. […] (SEQ ID NO: 2).
FIGS. 4A-4C Treatment effects of mitotic kinase inhibitors on (A) 3-day viability of LLC-JSP cells, (B) PD-L1 expression levels of surviving cells post treatment with 500 ng/ml of volasertib, alisertib, or AZD7762 as determined by flow cytometry and (C) their quantification.
FIGS. 6A-6D Nanoparticle delivery of PLK1 inhibitor volasertib (iPLK1-NP) to mouse NSCLC cells. (FIG. 6A) Schematic of synthesis of iPLK1-NP. (FIG. 6B) Hydrodynamic size of NP (with no inhibitor) and iPLK1-NP measured with Zetasizer. (FIG. 6C) Viability of LLC-JSP cells treated with volasertib (in 1% DMSO/PBS), iPLK1-NP (in PBS), or 1% DMSO/PBS for 4 days. Data presented as mean±SD from 4 independent samples; ****P<0.0001. (FIG. 6D) PD-L1 surface expression of LLC-JSP cells treated with PBS or iPLK1-NP (42 μg/ml NP, 210 ng/ml volasertib) for 3 days.
FIGS. 7A-7E. Nanoparticle for co-delivery of PLK1 inhibitor (iPLK1) and PD-L1 antibody (p-iPLK1-NP). (FIG. 7A) Schematic and (FIG. 7B) hydrodynamic size of p-iPLK1-NP containing 4 wt. % of PD-L1 antibody and 0.5 wt. % of PLK1 inhibitor. (FIG. 7C) 5-day cell viability of LLC-JSP cells treated with iPLK1-NP or p-iPLK1-NP. Data presented as mean±SD from 4 independent samples; ns—not significant. PD-L1 surface expression assessed by flow cytometry after LLC-JSP cells were incubated with various treatments as specified for (FIG. 7D) 2 hrs and (FIG. 7E) 2 days. […]
Flow cytometry: Cells (100K cells/well) were plated in 6 well plates overnight and treated with indicated treatments the next day. […] Cells were then washed with FACs buffer and analyzed with Guava (50,000 events per sample).

A549 = test: Cell cycle arrest in G2/M phase in A549; type: cell-based, human; settings: A549, 72 hr post treatment; siRNA 50 nM, BI 2536 10 nM
Protocol: FIGS. 2A-2D. Effects of siRNA against mitotic regulator PLK1 (siPLK1) on non-small-cell lung carcinoma (NSCLC) cell lines (A549 and H460). (FIG. 2A) 48-hr PLK1 mRNA knockdown (HPRT used as house-keeping gene) and (FIG. 2B) 72-hr PLK1 protein reduction at 50 nM siRNA dose. (FIG. 2C) 4-day cell viability at 30 nM siRNA dose. (FIG. 2D) Cell cycle arrest increase in G2/M phase in A549 72 hr post treatment. Antibody (cetuximab) conjugated NP was used to deliver the siPLK1 (C-siPLK1-NP) or scrambled siRNA control (C-siSCR-NP) at 50 nM siRNA BI 2536 (a PLK1 inhibitor) was used as a drug benchmark at 10 nM. Data presented as mean±SD from independent duplicates (10,000 events per sample); ****P<0.0001 vs. untreat control. Unless specified otherwise, “NP” denotes mesoporous silica nanoparticles coated with cross-linked PEI and PEG, as described in Ngamcherdtrakul et al., Advanced Functional Materials, 25(18):2646-2659, 2015 and U.S. Patent Application Publication No. 2017/0173169.

LLC-JSP cells = test: Cell viability of LLC-JSP cells (Cell Titer Glo); type: cell-based, mouse; settings: 4 days, dose-dependent
Protocol: (FIG. 14B) Treatment effect of ADC versus free alisertib of equivalent dose on viability of LLC-JSP cells (2-days). […] (FIG. 14C) Effect of PD-L1 on the viability of LLC-JSP cells.
Cell viability after treatments: Cells (1500/well) were plated in white flat bottom 96 well plate overnight. The following day, cells were treated with indicated treatments and media was changed 24 hr post treatment. 3-5 day post treatment, cell viability was assessed using Cell Titer Glo assay (Promega) following manufacturer's instructions. Luminescence was read with Tecan plate reader.

acute myeloid leukemia = settings: phase III; cited from earlier work
lung cancer = settings: phase II, 300 mg once every 3 weeks; cited from earlier work

| SMILES | surface PD-L1 level of surviving cells (PD-L1) | cell cycle arrest in G2/M (A549) | viability of LLC-JSP cells vs vehicle (LLC-JSP cells) | primary endpoint of objective response (acute myeloid leukemia) | response as monotherapy (lung cancer) |
| --- | --- | --- | --- | --- | --- |
| NC(=O)Nc1cc(-c2cccc(F)c2)sc1C(=O)N[C@H]1CCCNC1 [AZD7762] | upregulated surface PD-L1 level |  |  |  |  |
| CC[C@@H]1C(=O)N(C)c2cnc(Nc3ccc(C(=O)NC4CCN(C)CC4)cc3OC)nc2N1C1CCCC1 [B12536] |  | G2/M growth arrest |  |  |  |
| CC[C@@H]1C(=O)N(C)c2cnc(Nc3ccc(C(=O)N[C@H]4CC[C@H](N5CCN(CC6CC6)CC5)CC4)cc3OC)nc2N1C(C)C [volasertib] | upregulated surface PD-L1 level |  | significantly reduced cell viability | failed to meet primary endpoint of objective response | lack of response |
| COc1cc(Nc2ncc3c(n2)-c2ccc(Cl)cc2C(c2c(F)cccc2OC)=NC3)ccc1C(=O)O [alisertib] | upregulated surface PD-L1 level |  |  |  |  |
